The record followed here is article PMC12373846, “Hemoglobin as a pseudoperoxidase and drug target for oxidative stress-related diseases” (Signal Transduction and Targeted Therapy, 2025).

By EC50 is commonly meant the concentration at which the effect is half-maximal.

One experiment concerns the target T1, HRP (Armoracia rusticana, UniProt P00433).
T1 sequence (P00433 31-353): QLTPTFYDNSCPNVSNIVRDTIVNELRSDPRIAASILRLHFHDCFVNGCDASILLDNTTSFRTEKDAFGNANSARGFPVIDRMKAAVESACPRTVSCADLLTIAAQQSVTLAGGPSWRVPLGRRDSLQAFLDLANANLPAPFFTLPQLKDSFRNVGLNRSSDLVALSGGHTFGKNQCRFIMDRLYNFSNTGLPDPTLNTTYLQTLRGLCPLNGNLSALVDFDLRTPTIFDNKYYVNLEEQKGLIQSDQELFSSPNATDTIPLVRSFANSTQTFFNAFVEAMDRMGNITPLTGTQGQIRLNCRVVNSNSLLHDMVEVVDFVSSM
Nature of the experiment: Amplex Red H2O2 assay (HRP-dependent). The experiment is classed as biochemical, horseradish. As to conditions: Fig. 1b; read-out: EC50, dose-response in Amplex Red assay. The method, then:
Hb (Sigma‒Aldrich, H7379), H2O2 (Sigma‒Aldrich, H1009), and Amplex Red reagents (Invitrogen, A12222) were obtained for the study. A 4 μM H2O2 solution was prepared in 50 mM sodium phosphate buffer (pH 7.2). Then, 49 μl of this mixture was mixed with 1 μl of the test compound in DMSO or distilled water. The mixture was combined with an assay mixture of Amplex Red reagent (20 mM stock to 0.1 mM) and HRP (200 U/ml stock to 0.2 U/ml) and added to the wells at 50 μl/well. After a 60-min incubation at 37 °C, resorufin production was quantified via a microplate fluorescence reader (SpectraMax iD5, Molecular Devices) at ex/em = 535/580 nm. The H2O2-decomposing activity was estimated via the following equation: (sample fluorescence-blank fluorescence)/(control […]-blank fluorescence) × 100. For the ROS-Glo assay, the H2O2 substrate solution and ROS-Glo detection solution were prepared according to the manufacturer’s instructions. 10 μM H2O2 and drugs were prepared as in the Amplex Red assay, with HRP, Hb, CAT, or GPx added as needed. […] Luminescence was measured via iD5 microplate readers. The H2O2-decomposing activity was estimated via the following equation: (sample luminescence-blank luminescence)/(control luminescence-blank luminescence) × 100. The U/ml was calculated on the basis of the amount of H2O2 reduced by Hb during the reaction, using μg/ml and U/mg.

A further experiment has as its system APP/PS1 mice. Briefly: Novel place recognition test, APP/PS1 mice. The experiment is classed as in vivo, mouse. As to the method:
For an animal model of AD, both sexes of 10- to 18-month-old APP/PS1 mice were maintained and used as previously described.[76],[77] To test the effects of novel H2O2-decomposing enhancers in the AD model, the mice were treated by i.p. injection with KDS12008 (3 mg/kg/day), KDS12017 (3 mg/kg/day), or KDS12025 (3 or 10 mg/kg/day) once per day for 1 or 2 weeks, depending on the experimental protocol. All drugs were dissolved in 200 μl of saline, and the amount of each drug was calculated on the basis of the weight (kg) of the mouse. Moreover, KDS12025 (3 mg/kg/day) was orally administered to the AD model for 2 weeks ad libitum.
Before the novel place recognition (NPR) test, the mice were subjected to sufficient handling and were concurrently habituated to an open field test (OFT) in a square chamber (40 × 40 × 40 cm). After habituation, the mice were placed in the open field with two identical objects positioned in the first and second quadrants of the cage. The mice were allowed to explore the objects freely for 10 min and then returned to their home cages for 1 h. To test spatial recognition memory, one of the two identical objects was placed in a novel place (quadrant), and the mice were re-entered into the open field chamber for 10 min. The discrimination index (DI) was calculated as the percentage of time spent on the novel place over the total time spent on both the novel and the familiar place. Frequencies were quantified via EthoVision XT software (Noldus, Netherlands).
The mice were deeply anesthetized with vaporized 1% isoflurane and placed into stereotaxic frames (RWD Life Science, China). Following an incision on the midline of the scalp, a hole was drilled into the skull above the hippocampus. AAV-GFAP104-GFP or AAV-GFAP104-DTR-GFP was bilaterally microinjected into the hippocampal CA1 region (AP, −2.0 mm; ML, ±1.5 mm; DV, −1.65 mm from the bregma). Diphtheria toxin (2 mg/ml) was administered for 16 days as previously described.[77] For shRNA knockdown, AAV-pSicoR-Hbβ-shRNA-mCherry or AAV-pSicoR-Sc-shRNA-mCherry was microinjected into the same coordinate system. A total of 0.8 µl of the virus was injected via a syringe pump (KD Scientific, USA). The injection procedures were implemented before 5 weeks of the experiments. For cell type-specific knockdown, AAV-pSico-Hbβ-shRNA-GFP or AAV-pSico-Sc-shRNA-GFP was combined with either AAV-CaMKII-Cre-mCherry for neuronal targeting or AAV-GFAP-Cre-mCherry for astrocyte targeting. The viruses were bilaterally injected into the hippocampus and substantia nigra via the same stereotaxic coordinates and injection procedures. All viruses used in this study were produced at the Institute for Basic Science virus facility (IBS virus facility, Korea). To investigate the effects of 0.1 mg/kg/day KDS12025, GiD mice were injected with diphtheria toxin (2 mg/ml) daily for 16 days. Concurrently, KDS12025 was administered ad libitum (0.1 mg/kg/day) during the same period.

A further experiment has as its system SOD1^G93A mice. Nature of the experiment: Survival and rotarod, SOD1^G93A ALS mice. Type of experiment: in vivo, mouse. The conditions noted are these: 1 and 10 mg/kg/day ad libitum. As to the method:
SOD1^G93A mice (B6SJL-Tg(SOD1*G93A)1Gur/J) were purchased from Jackson Laboratory (strain number 002726) and used in the ALS mouse model. The mice were divided into four groups: Control, SOD1, and KDS12025 (1 and 10 mg/kg/day). Starting at 10 weeks of age, KDS12025 was administered via ad libitum drinking water at doses of 1 mg/kg/day and 10 mg/kg/day. The control and SOD1 groups received standard drinking water. Motor function was evaluated weekly via the rotarod performance test, and the ratio of running time was normalized to that of littermate controls to assess motor coordination and endurance over time. Survival of the mice was monitored for up to 24 weeks, and median survival times were calculated for each group.
On the technique in general: The rotarod test checks motor coordination on a turning rod.

The subject of another experiment is GiD mice. Nature of the experiment: Novel place recognition test, GiD mice. The experiment is classed as in vivo, mouse. The conditions noted are these: GiD+KDS12025 0.1mpk ad libitum, Fig. S11e.

As to `O=C(O)c1cc(NCCc2ccc(C(F)(F)F)cc2)ccc1O` [HTPEB, 2-hydroxy-5-[2-(4-trifluoromethyl-phenyl)-ethylamino]-benzoic acid, reference compound], the EC50 on HRP turned out to be 1800 nM.
Consider `CNc1ccc(NCCc2ccccc2OC)cc1.Cl` [KDS12025, N^1-(2-methoxyphenethyl)-N^4-methylbenzene-1,4-diamine hydrochloride salt], for which the NPR discrimination index result in the experiment on APP/PS1 mice (APP+KDS12025 3 mg/kg/day ad libitum, Fig. 5n) is reported as “WT (0.2560±0.07604, n=6), APP (-0.0956±0.05233, n=5), APP+KDS12025 (ad libitum) (0.2057±0.04843, n=6) One-way ANOVA with Tukey's multiple comparisons test, F(2,14) = 8.997, p = 0.003 WT vs. APP, p = 0.004; WT vs. APP+KDS12025 (ad libitum), p = 0.82; APP vs. APP+KDS12025 (ad libitum), p = 0.01”; in the experiment with APP/PS1 mice (APP+ScRNA+KDS12025, Fig. 6g), 0.46±0.09; in the experiment with APP/PS1 mice (APP+shHbβ+KDS12025, Fig. 6g), -0.06±0.082; in the experiment with APP/PS1 mice (APP+shHbβ::CaMKII+KDS12025, Fig. 6l), 0.24±0.08; with APP/PS1 mice (APP+shHbβ::GFAP+KDS12025, Fig. 6l) it was -0.04±0.059; in the experiment on GiD mice it was “WT (0.2256±0.0275, n=3), GiD (-0.02438±0.07989, n=3), GiD+KDS12025 (0.1mpk) (0.2255±0.02347, n=4) One-way ANOVA with Tukey's multiple comparisons test, F(2,7) = 9.285, p = 0.01 WT vs. GiD, p = 0.02; WT vs. GiD+KDS12025 (0.1mpk), p > 0.99; GiD vs. GiD+KDS12025 (0.1mpk), p = 0.01”. Besides, the “delay of motor impairment onset” value in the experiment with SOD1^G93A mice (rotarod) was “more than 7 weeks”. The compound further displayed a median survival in the experiment with SOD1^G93A mice (untreated 140) of 168 days.
